Measured values: the supplement of paper PMC10949913

Columns and labels:
Details in all cases: 48 h
CU-ACC1 [1] = experiment: area under concentration-response curve (viability) (AUC (a.u.)); higher = less active
In short: (§1)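 Three adrenocortical carcinoma cell lines in 1,536-well plates received 23 nL of each library compound at 11 concentrations and were read with CellTiter-Glo after 48 h, with 15 minutes at room temperature before measuring luminescence. Vehicle and empty-well controls served for per-plate normalisation. AC50 and area under the curve were extracted from fitted concentration-response curves, discarding all curve classes other than inhibitory or non-responding.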

NCI-H295R [2] = experiment: as above
In short: as §1

CU-ACC2 [3] = experiment: as above
In short: as §1

CU-ACC1 [4] = experiment: AC50 viability; higher = less potent
In short: as §1

NCI-H295R [5] = experiment: AC50 viability; higher = less potent
In short: as §1

CU-ACC2 [6] = experiment: AC50 viability; higher = less potent
In short: as §1

Row | Structure (SMILES) | area under concentration-response curve (CU-ACC1 [1]) | area under concentration-response curve (NCI-H295R [2]) | area under concentration-response curve (CU-ACC2 [3]) | AC50 viability (CU-ACC1 [4]) [µM] | AC50 viability (NCI-H295R [5]) [µM] | AC50 viability (CU-ACC2 [6]) [µM]
1 | CNC(=O)c1ccccc1Nc1nc(Nc2ccc(N3CCOCC3)cc2OC)ncc1Cl | 435 | 452 | 483 | 16.6 | 0.525 | 4.17
2 | NC[C@@](O)(c1ccc(Cl)cc1)c1ccc(-c2cn[nH]c2)cc1 | 463 | 485 | 529 | 7.42 | 8.33 | 14.8
3 | Cc1cc(Nc2cc(NC(=O)c3c(Cl)cccc3Cl)ccn2)nc(N)n1 | 457 | 439 | 522 | 11.8 | 13.2 | 5.9
4 | N#Cc1c(C2CCNCC2)cc(-c2c(O)cccc2OCC2CC2)nc1N | 291 | 275 | 269 | 10.5 | 1.05 | 0.934
5 | O=C1NC(=O)/C(=C/c2ccc3nccc(-c4ccncc4)c3c2)S1 | 412 | 393 | 480 | 1.32 | 1.32 | 1.18
6 | COC1=C(OC)C=C\2C(=C1)C(=O)N(CCCNCCO)\C3=C2C(=O)C4=C3C=C5OCOC5=C4 | 364 | 407 | 396 | 5.9 | 7.42 | 4.17
7 | CCOc1cc(C(=O)N2CCC(N3CCN(C)CC3)CC2)ccc1Nc1ncc2c(n1)N(C1CCCC1)c1ccccc1C(=O)N2C | 423 | 448 | 494 | 18.6 | 18.6 | 18.6
8 | O=C(Nc1cc(C(F)(F)F)cc(C(F)(F)F)c1)c1cc(Cl)ccc1O | 429 | 463 | 493 | 2.63 | 2.95 | 1.86
9 | COc1cc2c(Nc3ccc(Br)cc3F)ncnc2cc1OCC1CCN(C)CC1 | 401 | 403 | 418 | 14.8 | 16.6 | 16.6
10 | Cc1ccc(C(=O)Nc2cccc(C(F)(F)F)c2)cc1Nc1nc(-c2cccnc2)nc2c1cnn2C | 440 | 477 | 515 | 23.5 | 18.6 | 20.9
11 | CCCCc1nc2cc(/C=C/C(=O)NO)ccc2n1CCN(CC)CC | 416 | 453 | 405 | 1.66 | 1.48 | 5.9
12 | COc1nc(OCc2cccc(-c3ccccc3)c2C)ccc1CNCCNC(C)=O | 390 | 412 | 379 | 11.8 | 5.9 | 16.6
13 | C=CC(=O)Nc1cccc(Nc2nc(Nc3ccc(NC4CN(CCF)C4)cc3OC)ncc2C(F)(F)F)c1 | 398 | 446 | 386 | 9.34 | 8.33 | 14.8
14 | c1ccc(CNc2nc(NCc3ccccc3)c3ccccc3n2)cc1 | 366 | 386 | 467 | 7.42 | 7.42 | 9.34
15 | Cc1n[nH]c2ccc(-c3cncc(OC[C@@H](N)Cc4ccccc4)c3)cc12 | 305 | 294 | 342 | 1.48 | 2.35 | 1.18
16 | Cn1ncc(Cl)c1-c1cc(C(=O)NC(CN)Cc2ccc(F)c(F)c2)oc1Cl (stereo not drawn) | 393 | 403 | 422 | 6.61 | 5.9 | 16.6
17 | CNCc1ccc(C)c(NC(=O)c2ccc(Nc3nc(-c4ccccc4)c4ccccc4n3)cc2)c1 | 471 | 521 | 575 | 16.6 | 18.6 | 23.5
18 | CCCCOc1c(C(=O)c2c(F)cc(C)cc2F)cnc2[nH]ncc12 | 419 | 432 | 407 | 1.48 | 2.35 | 2.09
19 | O=C(Nc1ccccc1-c1cn2c(CN3CCNCC3)csc2n1)c1cnc2ccccc2n1 | 367 | 358 | 366 | 6.61 | 2.95 | 7.42
20 | Cc1nc(NC(=O)N2CCC[C@H]2C(N)=O)sc1-c1ccnc(C(C)(C)C(F)(F)F)c1 | 439 | 421 | 457 | 8.33 | 18.6 | 9.34
21 | CN1CCC(CNc2ccc3ncc(-c4cccc(OC(F)(F)F)c4)n3n2)CC1 | 413 | 416 | 460 | 7.42 | 9.34 | 13.2
22 | CN(C)C/C=C/C(=O)Nc1ccc(C(=O)Nc2cccc(Nc3ncc(Cl)c(-c4c[nH]c5ccccc45)n3)c2)cc1 | 363 | 406 | 275 | 0.661 | 1.48 | 0.332
23 | CC[C@@]1(O)C(=O)OC/C2=C1/C=C3\N(CC4=C5[C@@H](N)CCC6=C5C(=CC(=C6C)F)N=C34)C2=O | 388 | 437 | 486 | 2.09 | 3.72 | 2.35
24 | Cn1cc(CNCC2CCN(c3ncc(C(=O)NO)cn3)CC2)c2ccccc21 | 325 | 443 | 347 | 0.661 | 0.661 | 0.417
25 | C[C@H]([C@H]1C\C(=C(CO)/C(=O)O1)C)[C@H]2CC[C@H]3[C@@H]4C[C@H]5O[C@]56[C@@H](O)\C=C/C(=O)[C@]6(C)[C@H]4CC[C@]23C | 270 | 401 | 393 | 1.48 | 1.18 | 0.468
26 | COc1ccc(N2C(=O)N(c3c(C)cccc3Cl)Cc3cnc(Nc4ccc(C5CCN(C)CC5)cc4OC)nc32)nc1 | 451 | 490 | 511 | 18.6 | 14.8 | 18.6
27 | O=C(/C=C/c1ccc(CN(CCO)CCc2c[nH]c3ccccc23)cc1)NO | 293 | 380 | 345 | 0.332 | 1.66 | 0.59
28 | NC1(CCC1)C2=CC=C(C=C2)C3=C(C=C/4C(=N3)\C=C/N5C(=O)N\N=C45)C6=CC=CC=C6 | 442 | 404 | 523 | 9.34 | 16.6 | 18.6
